# Data published in patent publication US20210387949A1, “NEW SELECTIVE MODULATORS OF INSECT NICOTINIC ACETYLCHOLINE RECEPTORS” (UNIVERSITE DE NANTES, priority 2018, published 2021).
# Where two headings read alike, the source gives them in different places.
# How the values were obtained:
# [1] = test system: Honey bees Apis mellifera; settings: literature values (Iwasa 2004; Stark 1995); cited from earlier work
# [2] = test system: cercal nerve giant interneuron synapses within the cockroach sixth abdominal ganglion (A6); experiment: Mannitol-gap recordings, neurotoxic effect on insect cholinergic synaptic transmission; format: cell-based; settings: for Depolarization of the sixth abdominal ganglion: in words; for Reversal of synaptic depolarization after wash-out: effect also observed 2 h after application; for EC50: read-out: EC50 of depolarization
# Description: Neurotoxic effect was studied using mannitol-gap recordings. Experiments were performed on the cercal nerve giant interneuron synapses located within the cockroach sixth abdominal ganglion (A6) using the mannitol-gap method pioneered by Callec (Callec, J. J.; Sattelle, D. B., A simple technique for monitoring the synaptic actions of pharmacological agents. J Exp Biol 1973, 59, (3), 725-38; and Callec, J. J.; Sattelle, D. B.; Hue, B.; Pelhate, M., Central synaptic actions of pharmacological agents in insects: oil-gap and mannitol-gap studies. In Neurotox 79, Sherwood, M., Ed. Plenum Press: New York, 1980; pp 93-100).
# Electrical events were recorded using external electrodes. A non-electrolyte medium (mannitol) was interposed between the recording sites (Callec, J. J.; Sattelle, D. B.; Hue, B.; Pelhate, M., Central synaptic actions of pharmacological agents in insects: oil-gap and mannitol-gap studies. In Neurotox 79, Sherwood, M., Ed. Plenum Press: New York, 1980; pp 93-100). The main advantages of this method were to preserve the recordings of the unitary or evoked excitatory postsynaptic potentials (EPSP) and the postsynaptic polarization. Consequently, monitoring the variations of EPSP amplitude and/or polarization induced by drug application enables dose-response curves to be recorded. Moreover, this set-up allows long-term experiments to be performed and test solutions can be readily applied without any of the technical problems associated with intracellular recording.
# A6 was carefully desheathed to facilitate penetration of bath-applied drugs. The recording electrodes were connected to the input of high-impedance amplifier, whose outputs were passed to a numeric oscilloscope (Hameg, Germany) and a chart recorder (Kipp and Zonen, B D 111, Holland). Variation of postsynaptic polarization was monitored on a chart recorder and the cEPSPs were evoked by electrical stimulations of the ipsilateral cercal nerve XI using a dual pulse stimulator (Campden 915, USA). TMX was applied during 3 min in the same conditions as previously published (Buckingham, S.; Lapied, B.; Corronc, H.; Sattelle, F., Imidacloprid actions on insect neuronal acetylcholine receptors. J Exp Biol 1997, 200, (Pt 21), 2685-92; and Thany, S. H., Agonist actions of clothianidin on synaptic and extrasynaptic nicotinic acetylcholine receptors expressed on cockroach sixth abdominal ganglion. Neurotoxicology 2009, 30, (6), 1045-52), with a micropump fast perfusion (Harvard Apparatus) that produced a constant solution exchange (500 μL/min). All muscarinic and nicotinic antagonists were bath-applied for at least 20 min before a single application of TMX. Recordings were made at room temperature.
# To compare the depolarizations, the peak amplitudes were normalized (V/Vmax). The dose-response curve was derived from the fitted curve following the equation:
# y=Vmin+(Vmax−Vmin)/(1+10^(log EC^50^−X)H)
# where Y is the normalized response, Vmax and Vmin are the maximum and minimum responses, H is the Hill coefficient, EC50 is the concentration giving half the maximum response and X is the logarithm of the compound concentration.
# [3] = test system: honeybee Apis mellifera; experiment: Oral toxicity against honeybee; format: in vivo; settings: for % mortality 24 h / % mortality 48 h: oral, DMSO 1%; for Toxicity for bees: higher concentrations (150 ng/bee), in words
# Description: Honeybees were kept from hives located at the University of Orleans and transferred to the laboratory incubators for experiments (30±1.5° C.; 12/12 h 0/N). They were placed in six different cages, 20 bees per cage, with 40% sucrose solution (control group) or tested compounds.
# All tests were carried out using adult worker honeybees, Apis mellifera L (Hymenoptera: Apidae) taken from two queen colonies. These colonies were disease-free and had received no chemical treatments (Eg. Varroacide). For oral toxicity tests, adult worker bees were collected from the hive combs (avoiding the brood nest area) or from the flight board.
# Stock solutions of compounds were dissolved in dimethyl sulfoxide (DMSO) to obtain 500 ng/μL and stocked at −20° C. These samples were then diluted in sucrose solution (40%; w/v), for final experiments. […] Solutions of the test doses were stirred immediately prior to use and were visually homogenous when proposed to bees. Bee allocation to the treatment groups was made impartially. Before being used for the test, bees were subjected to a starvation period of between 2 h and 3 h under test conditions (For review, see Nauen, R.; Ebbinghaus-Kintscher, U.; Schmuck, R., Toxicity and nicotinic acetylcholine receptor interaction of imidacloprid and its metabolites in Apis mellifera (Hymenoptera: Apidae). Pest Management Science 2001, 57, (7), 577-586).
# Six batches of bees (20 bees per batch) were subjected to different doses of the test compound (nominal doses between 50 ng/bee and […]). Doses were determined according to the lethal dose of neonicotinoid insecticides inducing bee toxic effects (Table 3). Controls received sucrose solution containing 0.25% DMSO. The glass test feeders containing any unconsumed portions of the doses were removed and after each experiment a fresh sucrose solution was supplied in feeders within the cages. For each concentration three replicates were made (180 bees/concentration). Mortality was measured at 24 h and 48 h after treatment.
# [4] = bath application, dose-response curve of sixth abdominal ganglion depolarization
smiles,measurement,setting,value
"Cc1ccc(S(=O)(=O)N2CCCC2)cc1 [Compound 3aa, 1-tosylpyrrolidine]",melting point,,129 °C
CN1COCN(Cc2cnc(Cl)s2)/C1=N\[N+](=O)[O-] [Thiamethoxam],LD50,[1],29.9 ng/bee (Iwasa 2004)
CCN(Cc1ccc(Cl)nc1)/C(=C/[N+](=O)[O-])NC [Nitenpyram],LD50,[1],138 ng/bee
"Cc1ccc(S(=O)(=O)N2CCC[C@H]2C#N)cn1 [Compound 3iv, (S)-1-((6-methylpyridin-3-yl)sulfonyl)pyrrolidine-2-carbonitrile]",Depolarization of the sixth abdominal ganglion,[2]; bath application,strong depolarization
same,Reversal of synaptic depolarization after wash-out,[2],not reversed after wash-out
same,% mortality 24 h,[3]; 50 ng/bee,0%
same,% mortality 48 h,[3]; 50 ng/bee,0%
same,% mortality 24 h,[3]; 150 ng/bee,0%
same,% mortality 48 h,[3]; 150 ng/bee,0%
same,Toxicity for bees,[3],not toxic for bees
"N#C[C@@H]1CCCN1S(=O)(=O)c1ccc(Cl)nc1 [Compound 3i, (S)-1-((6-chloropyridin-3-yl)sulfonyl)pyrrolidine-2-carbonitrile]",EC50,[2]; [4],19 µM
same,Depolarization of the sixth abdominal ganglion,[2]; bath application,strong depolarization
same,Reversal of synaptic depolarization after wash-out,[2],not reversed after wash-out
same,% mortality 24 h,[3]; 50 ng/bee,3.3%
same,% mortality 48 h,[3]; 50 ng/bee,10.0%
same,% mortality 24 h,[3]; 150 ng/bee,0%
same,% mortality 48 h,[3]; 150 ng/bee,0%
"COc1ccc(S(=O)(=O)N2CCCC2)cn1 [Compound 3ii, 2-methoxy-5-(pyrrolidin-1-ylsulfonyl)pyridine]",EC50,[2]; [4],8.02 µM
same,Depolarization of the sixth abdominal ganglion,[2]; bath application,strong depolarization
same,Reversal of synaptic depolarization after wash-out,[2],not reversed after wash-out
same,% mortality 24 h,[3]; 50 ng/bee,0%
same,% mortality 48 h,[3]; 50 ng/bee,3.3%
same,% mortality 24 h,[3]; 150 ng/bee,0%
same,% mortality 48 h,[3]; 150 ng/bee,1.2%
same,Toxicity for bees,[3],not toxic for bees
CN/C(=N/CC1CCOC1)N[N+](=O)[O-] (centres unmarked) [Dinotefuran],LD50,[1],75 ng/bee (Iwasa 2004)
"N#CC1CCCN1S(=O)(=O)c1ccc(Cl)cc1 (centres unmarked) [Compound 3bb, 1-((4-chlorophenyl)sulfonyl) pyrrolidine-2-carbonitrile]",melting point,,115 °C
"Cc1ccc(S(=O)(=O)N2CCC[C@H]2C#N)cc1 [Compound 3ac, (S)-1-tosylpyrrolidine-2-carbonitrile]",melting point,,102 °C
"N#C[C@@H]1CCCN1S(=O)(=O)c1ccc(Cl)cc1 [Compound 3bc, (S)-1-((4-chlorophenyl)sulfonyl) pyrrolidine-2-carbonitrile]",melting point,,115 °C
"O=S(=O)(c1ccc(Cl)cc1)N1CCCC1 [Compound 3ba, 1-((4-chlorophenyl)sulfonyl) pyrrolidine]",melting point,,106 °C
"O=S(=O)(c1ccc(Cl)nc1)N1CCCC1 [Compound 3da, 2-chloro-5-(pyrrolidin-1-ylsulfonyl)pyridine]",melting point,,134 °C
CN/C(=N\[N+](=O)[O-])NCc1cnc(Cl)s1 [Clothianidin],LD50,[1],21.8 ng/bee (Iwasa 2004)
"COc1ccc(S(=O)(=O)N2CCCC2C#N)cn1 (centres unmarked) [Compound 3iii, 1-((6-methoxypyridin-3-yl)sulfonyl)pyrrolidine-2-carbonitrile]",EC50,[2]; [4],4.25 µM
same,Depolarization of the sixth abdominal ganglion,[2]; bath application,strong depolarization
same,Reversal of synaptic depolarization after wash-out,[2],not reversed after wash-out
same,% mortality 24 h,[3]; 50 ng/bee,3.3%
same,% mortality 48 h,[3]; 50 ng/bee,5.0%
same,% mortality 24 h,[3]; 150 ng/bee,2.5%
same,% mortality 48 h,[3]; 150 ng/bee,3.7%
"O=[N+]([O-])NC1=NCCN1Cc1ccc(Cl)nc1 [Imidacloprid, reference compound]",EC50,[2],~15 µM
"Cc1ccc(S(=O)(=O)N2CCCC2C#N)cc1 (centres unmarked) [Compound 3ab, 1-tosylpyrrolidine-2-carbonitrile]",melting point,,102 °C
